# Active and inactive are the calls of the source.
# Experiments:
# Troponin, cardiac muscle = Troponin, cardiac muscle (Homo sapiens, UniProt P19429+P45379+P63316); assay: Fluorescence-based biochemical high throughput dose response assay for activators of the calcium sensitivity of cardiac Regulated Thin Filaments (RTF). [Related pubchem assays (depositor defined):AID493008, AID493018, AID504382, AID504383]; format: protein-complex assay
# [1] = molecular target: G-protein coupled receptor 55 (Homo sapiens, UniProt Q9Y2T6); assay: blockers of GPR55 signalling, imaged – imaging, image-based, counter-screen for GPR35 antagonist project, SAR follow-up (AID 2397); format: functional
# Cytochrome P450 3A4 = Cytochrome P450 3A4 (Homo sapiens, UniProt P08684);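 note: CYP3A4 tested as one member of a cytochrome P450 panel screen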
# Streptococcus [2] = assay: Luminescence Microorganism-Based Dose Response Follow up to Identify Compounds Cytotoxic to Streptococcus. [Related pubchem assays: 1677 (Project Summary), 1915, 1914, 1902 (Retest at Dose), 1900 (Counter Screen), 1662 (Primary HTS)]; format: functional, organism-based
# [3] = molecular target: Peroxisome proliferator-activated receptor gamma/Nuclear receptor coactivator 1 (Homo sapiens, UniProt P37231); assay: TR-FRET dose response biochemical High Throughput Screening assay for agonists of the steroid receptor coactivator 1 (SRC-1) recruitment by the peroxisome proliferator-activated receptor gamma (PPAR gamma): non-selective agonists. [Related pubchem assays (depositor defined):AID1300, AID1808, AID504735, AID631]; format: protein assay
# [4] = molecular target: Protein-tyrosine kinase 2-beta (Homo sapiens, UniProt Q14289);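 note: potency of inhibitors of PYK2 kinase phosphorylation of poly-GT substrate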
# [5] = molecular target: Peroxisome proliferator-activated receptor gamma/Nuclear receptor coactivator 2 (Homo sapiens, UniProt P37231); assay: (§1) TR-FRET dose response biochemical High Throughput Screening assay for agonists of the steroid receptor coactivator 2 (SRC-2) recruitment by the peroxisome proliferator-activated receptor gamma (PPAR gamma): non-selective agonists. [Related pubchem assays: 1297, 1032 ]; format: functional
# [6] = tested on: Streptococcus sp. 'group A'; assay: Streptococcus pyogenes SK(-)GAS viability under kanamycin – luminescence, BacTiterGlo, confirmation, counter-screen for streptokinase expression inhibitor project, dose response (AID 1900); format: functional, organism-based
# Streptokinase A = molecular target: T1, Streptokinase A (Streptococcus pyogenes serotype M1, UniProt P10520); assay: viability-normalized secreted streptokinase activity reduction – plasminogen activation absorbance, OD405, dose response (AID 1914); format: functional, Streptococcus pyogenes M1 GAS;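 note: secreted streptokinase activity via plasminogen activation per viability signal from cell pellet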
# T1 sequence (P10520 whole entry): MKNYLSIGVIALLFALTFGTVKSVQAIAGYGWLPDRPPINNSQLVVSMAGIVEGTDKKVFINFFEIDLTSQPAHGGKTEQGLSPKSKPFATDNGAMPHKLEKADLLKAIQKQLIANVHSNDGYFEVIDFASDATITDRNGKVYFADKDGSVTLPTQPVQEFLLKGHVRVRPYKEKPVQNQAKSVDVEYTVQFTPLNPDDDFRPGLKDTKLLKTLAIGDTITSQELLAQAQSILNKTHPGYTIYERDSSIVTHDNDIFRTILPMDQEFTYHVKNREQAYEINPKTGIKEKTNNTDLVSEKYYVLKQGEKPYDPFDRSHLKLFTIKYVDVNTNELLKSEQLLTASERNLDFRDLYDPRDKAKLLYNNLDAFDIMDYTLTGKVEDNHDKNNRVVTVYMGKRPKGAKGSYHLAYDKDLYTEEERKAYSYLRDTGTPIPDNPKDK
# [7] = viability of uninfected HEp-2 cells – cell-based, HTS, cytotoxicity control for RSV inhibitor project, dose response (AID 2410); format: functional; conditions: human respiratory syncytial virus
# Streptococcus [8] = assay: GAS UMAA2166 growth inhibition – luminescence, BacTiterGlo, counter-screen for streptokinase expression inhibitor project, dose response (AID 1915); format: functional, organism-based;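 note: potency for reduction of bacterial viability or growth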
# [9] = molecular target: Peroxisome proliferator-activated receptor gamma/Nuclear receptor coactivator 3 (Homo sapiens, UniProt P37231); assay: as §1, with “3 (SRC-3)” for “2 (SRC-2)”, “1301 (Confirmation screen.), 1048 (Primary screen.)]” for “1297, 1032 ]”; format: functional
# Ion channel NompC = Ion channel NompC (Danio rerio, UniProt Q7T1G6); assay: Dose response cell-based high-throughput screening assay for agonists of the transient receptor potential channel N1 (TRPN1). [Related pubchem assays (depositor defined):AID1424, AID1448]; format: functional
# Mucolipin-3 = molecular target: T2, Mucolipin-3 (Homo sapiens, UniProt Q8TDD5); assay: Fluorescence counterscreen assay for […] agonists: dose response cell-based high-throughput screening assay to identify agonists of the transient receptor potential channel ML3 (TRPML3). [Related pubchem assays: 1424, 1448 ]; format: functional
# T2 sequence (Q8TDD5 whole entry): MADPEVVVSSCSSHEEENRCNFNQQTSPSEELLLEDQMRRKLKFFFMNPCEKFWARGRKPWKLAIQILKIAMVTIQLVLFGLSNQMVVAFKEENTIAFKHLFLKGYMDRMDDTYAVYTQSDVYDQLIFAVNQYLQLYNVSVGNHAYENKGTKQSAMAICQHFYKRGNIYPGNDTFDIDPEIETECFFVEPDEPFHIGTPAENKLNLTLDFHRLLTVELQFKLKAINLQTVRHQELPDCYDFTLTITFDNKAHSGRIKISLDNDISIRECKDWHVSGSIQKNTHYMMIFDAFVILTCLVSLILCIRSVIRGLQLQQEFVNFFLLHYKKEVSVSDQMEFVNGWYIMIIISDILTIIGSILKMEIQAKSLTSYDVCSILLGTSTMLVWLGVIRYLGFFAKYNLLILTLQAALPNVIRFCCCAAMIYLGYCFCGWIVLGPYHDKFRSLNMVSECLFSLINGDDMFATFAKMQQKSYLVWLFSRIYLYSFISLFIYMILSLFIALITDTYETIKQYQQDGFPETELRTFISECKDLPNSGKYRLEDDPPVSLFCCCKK
# [10] = off-target signal loss in HeLa-CEM21 co-culture – HeLa F-luc CTL cells, cherry-picked, counter-screen for HIV-1 Env fusion inhibitor project, dose response (AID 652040); format: functional, cell-based;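 note: potency for signal decrease marking cytotoxic or nonspecific inhibition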
# Chain of G-protein coupled receptor 55 (Q9Y2T6 whole entry): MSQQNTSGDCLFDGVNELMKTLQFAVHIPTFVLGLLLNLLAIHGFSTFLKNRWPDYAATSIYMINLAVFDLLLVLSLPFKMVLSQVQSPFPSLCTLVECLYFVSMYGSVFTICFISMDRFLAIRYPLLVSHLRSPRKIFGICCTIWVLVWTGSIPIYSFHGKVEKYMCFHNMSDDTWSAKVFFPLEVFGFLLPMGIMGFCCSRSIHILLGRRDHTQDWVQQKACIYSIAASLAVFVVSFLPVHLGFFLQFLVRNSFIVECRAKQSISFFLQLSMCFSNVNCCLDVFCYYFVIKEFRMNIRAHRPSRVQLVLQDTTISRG
# Chain of Peroxisome proliferator-activated receptor gamma/Nuclear receptor coactivator 1 (P37231 whole entry): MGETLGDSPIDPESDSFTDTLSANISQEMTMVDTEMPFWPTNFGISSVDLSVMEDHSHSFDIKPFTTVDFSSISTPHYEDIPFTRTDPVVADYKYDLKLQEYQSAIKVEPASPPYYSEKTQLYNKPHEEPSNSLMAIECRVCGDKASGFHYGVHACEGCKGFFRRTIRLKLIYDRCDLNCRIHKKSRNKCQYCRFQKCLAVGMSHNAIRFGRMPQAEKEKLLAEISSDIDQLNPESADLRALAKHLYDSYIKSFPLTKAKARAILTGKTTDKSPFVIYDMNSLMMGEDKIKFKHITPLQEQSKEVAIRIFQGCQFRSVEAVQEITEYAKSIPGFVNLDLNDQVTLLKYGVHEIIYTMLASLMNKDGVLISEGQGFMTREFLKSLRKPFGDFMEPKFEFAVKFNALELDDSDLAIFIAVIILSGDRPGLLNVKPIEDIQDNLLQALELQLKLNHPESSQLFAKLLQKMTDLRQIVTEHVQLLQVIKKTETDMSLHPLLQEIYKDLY
# Chain of Peroxisome proliferator-activated receptor gamma/Nuclear receptor coactivator 1 (Q15788 whole entry, further chain): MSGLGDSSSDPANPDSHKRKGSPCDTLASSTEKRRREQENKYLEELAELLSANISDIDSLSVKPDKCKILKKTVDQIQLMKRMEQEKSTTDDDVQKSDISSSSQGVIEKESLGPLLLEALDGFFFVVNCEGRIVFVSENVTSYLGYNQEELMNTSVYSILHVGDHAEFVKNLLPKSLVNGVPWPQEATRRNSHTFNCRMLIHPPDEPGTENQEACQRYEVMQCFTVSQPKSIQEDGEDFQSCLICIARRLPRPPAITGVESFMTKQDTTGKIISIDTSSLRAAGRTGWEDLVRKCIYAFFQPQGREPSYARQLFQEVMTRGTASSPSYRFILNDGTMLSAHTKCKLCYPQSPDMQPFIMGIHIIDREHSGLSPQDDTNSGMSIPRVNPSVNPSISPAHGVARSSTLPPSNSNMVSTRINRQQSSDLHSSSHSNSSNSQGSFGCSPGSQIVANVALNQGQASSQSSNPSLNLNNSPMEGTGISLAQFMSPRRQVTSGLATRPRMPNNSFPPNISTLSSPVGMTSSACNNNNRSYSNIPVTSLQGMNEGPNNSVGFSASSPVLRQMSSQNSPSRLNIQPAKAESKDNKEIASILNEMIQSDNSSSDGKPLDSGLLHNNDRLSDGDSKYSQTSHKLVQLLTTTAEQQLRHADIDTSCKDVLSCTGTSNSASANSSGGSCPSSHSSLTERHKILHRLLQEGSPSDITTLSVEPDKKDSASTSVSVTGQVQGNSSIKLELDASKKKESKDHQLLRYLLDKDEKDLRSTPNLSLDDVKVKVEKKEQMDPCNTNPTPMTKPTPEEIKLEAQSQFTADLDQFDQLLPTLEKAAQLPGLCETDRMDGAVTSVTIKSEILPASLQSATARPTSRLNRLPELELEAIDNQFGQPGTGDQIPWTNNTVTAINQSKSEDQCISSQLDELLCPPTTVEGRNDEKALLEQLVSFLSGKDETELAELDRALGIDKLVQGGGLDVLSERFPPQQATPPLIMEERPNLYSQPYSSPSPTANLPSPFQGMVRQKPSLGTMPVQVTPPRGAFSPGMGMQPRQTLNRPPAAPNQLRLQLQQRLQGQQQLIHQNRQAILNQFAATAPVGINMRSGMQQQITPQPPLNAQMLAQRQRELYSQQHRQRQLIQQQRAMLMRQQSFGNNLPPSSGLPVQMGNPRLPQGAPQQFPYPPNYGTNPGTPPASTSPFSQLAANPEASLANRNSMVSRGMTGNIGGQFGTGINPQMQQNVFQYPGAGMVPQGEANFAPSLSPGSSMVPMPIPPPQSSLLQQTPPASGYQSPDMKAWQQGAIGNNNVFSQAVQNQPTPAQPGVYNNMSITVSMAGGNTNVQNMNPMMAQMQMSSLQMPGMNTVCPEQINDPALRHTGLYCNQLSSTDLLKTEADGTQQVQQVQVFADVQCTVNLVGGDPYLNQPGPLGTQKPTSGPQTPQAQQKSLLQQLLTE
# Chain of Peroxisome proliferator-activated receptor gamma/Nuclear receptor coactivator 2 (P37231 whole entry): as the sequence (P37231 whole entry) above
# Chain of Peroxisome proliferator-activated receptor gamma/Nuclear receptor coactivator 2 (Q15596 whole entry, further chain): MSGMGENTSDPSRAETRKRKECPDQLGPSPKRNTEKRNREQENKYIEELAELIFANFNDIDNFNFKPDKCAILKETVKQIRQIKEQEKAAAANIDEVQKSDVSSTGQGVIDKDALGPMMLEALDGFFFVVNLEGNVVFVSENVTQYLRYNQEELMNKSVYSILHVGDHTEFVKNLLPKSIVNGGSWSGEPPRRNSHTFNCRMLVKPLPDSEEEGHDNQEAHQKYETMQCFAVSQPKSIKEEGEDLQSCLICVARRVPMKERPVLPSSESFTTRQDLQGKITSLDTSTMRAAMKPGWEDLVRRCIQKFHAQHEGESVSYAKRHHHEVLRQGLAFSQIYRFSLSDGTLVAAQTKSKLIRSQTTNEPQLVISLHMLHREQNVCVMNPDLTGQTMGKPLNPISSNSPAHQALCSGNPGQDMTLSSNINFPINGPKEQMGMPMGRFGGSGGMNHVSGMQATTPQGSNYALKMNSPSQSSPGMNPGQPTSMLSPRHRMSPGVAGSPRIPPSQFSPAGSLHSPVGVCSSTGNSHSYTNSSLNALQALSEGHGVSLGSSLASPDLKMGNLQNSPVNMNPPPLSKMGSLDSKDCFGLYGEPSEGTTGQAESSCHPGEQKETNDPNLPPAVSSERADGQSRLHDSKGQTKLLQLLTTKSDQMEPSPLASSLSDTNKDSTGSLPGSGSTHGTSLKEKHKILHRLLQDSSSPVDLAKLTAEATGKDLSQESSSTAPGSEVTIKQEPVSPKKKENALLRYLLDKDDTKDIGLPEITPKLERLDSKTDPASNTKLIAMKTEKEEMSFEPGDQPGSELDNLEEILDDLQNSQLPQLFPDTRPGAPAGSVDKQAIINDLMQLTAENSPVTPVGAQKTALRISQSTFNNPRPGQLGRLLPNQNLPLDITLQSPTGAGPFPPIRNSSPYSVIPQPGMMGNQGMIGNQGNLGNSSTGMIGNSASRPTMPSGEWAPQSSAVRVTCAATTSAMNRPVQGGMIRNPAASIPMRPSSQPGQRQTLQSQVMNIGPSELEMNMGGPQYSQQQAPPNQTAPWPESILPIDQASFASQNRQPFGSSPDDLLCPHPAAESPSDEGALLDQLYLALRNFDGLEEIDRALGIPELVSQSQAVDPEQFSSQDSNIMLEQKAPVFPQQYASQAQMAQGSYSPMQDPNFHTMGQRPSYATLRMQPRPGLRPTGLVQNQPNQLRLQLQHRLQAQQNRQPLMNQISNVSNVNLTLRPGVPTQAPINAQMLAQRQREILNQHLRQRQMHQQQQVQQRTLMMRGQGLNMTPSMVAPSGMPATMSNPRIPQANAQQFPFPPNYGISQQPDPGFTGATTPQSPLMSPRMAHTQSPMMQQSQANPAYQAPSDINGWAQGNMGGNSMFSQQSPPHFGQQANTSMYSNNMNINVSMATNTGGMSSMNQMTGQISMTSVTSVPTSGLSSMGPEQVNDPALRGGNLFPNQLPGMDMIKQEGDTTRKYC
# Chain of Cytochrome P450 3A4 (P08684 whole entry): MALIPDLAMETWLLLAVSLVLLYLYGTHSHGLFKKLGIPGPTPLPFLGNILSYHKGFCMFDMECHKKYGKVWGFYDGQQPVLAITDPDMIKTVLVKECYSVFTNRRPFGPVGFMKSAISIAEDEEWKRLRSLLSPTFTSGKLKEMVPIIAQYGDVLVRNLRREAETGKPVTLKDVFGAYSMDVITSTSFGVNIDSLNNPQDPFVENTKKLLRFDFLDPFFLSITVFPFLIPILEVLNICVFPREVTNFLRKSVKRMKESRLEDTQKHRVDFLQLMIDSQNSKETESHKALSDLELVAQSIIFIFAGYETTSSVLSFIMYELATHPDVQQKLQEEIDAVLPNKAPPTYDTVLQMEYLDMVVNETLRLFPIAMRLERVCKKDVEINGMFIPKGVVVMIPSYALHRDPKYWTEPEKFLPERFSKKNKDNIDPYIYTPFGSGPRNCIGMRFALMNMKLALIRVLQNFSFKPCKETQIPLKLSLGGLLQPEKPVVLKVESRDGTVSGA
smiles,measurement,setting,value
COc1cc(CCCN2C(S)=NC[C@@H]2CC2CCCCC2)cc(OC)c1OC,EC50,"Troponin, cardiac muscle",> 71.5 µM (inactive)
Cc1nc(N2CCC(C)CC2)c2c(C)c(C(=O)Nc3ccc(C)c(F)c3)sc2n1,IC50,[1],> 32 µM (inactive)
CCc1nnc(NC(=O)CCC(=O)N2CCN(c3ccccn3)CC2)s1,AC50,Cytochrome P450 3A4,inconclusive
COc1ccc(-c2nc(-c3cccs3)c(-c3cccs3)[nH]2)cc1OC,EC50,Streptococcus [2],5.41 µM (active)
same,EC50,[3],13.9 µM (inactive)
same,IC50,[4],> 69.5 µM (not active)
same,EC50,[5],15.6 µM (not active)
same,EC50,[6],2.57 µM (active)
same,EC50,Streptokinase A,1.41 µM (active)
same,CC50,[7],23.4 µM (active)
same,EC50,Streptococcus [8],> 150 µM (not active)
same,EC50,[9],> 79.4 µM (not active)
Cc1cc(O)nc(SCC(=O)Nc2ccccc2C)n1,EC50,Ion channel NompC,> 29.9 µM (inactive)
same,EC50,Mucolipin-3,> 29.9 µM (not active)
Cc1ccc(Cn2ncc3c(N4CCN(c5ccc(C)cc5)CC4)ncnc32)cc1,AC50,[10],6.95 µM (active)
same,IC50,[1],> 32 µM (inactive)
